# Laboratory results taken from patent publication US8598365B2, “Herbicides” (Syngenta Limited, priority 2007, dated 2013).
# Tests used:
# Format in all cases: in vivo
# [1] = system: Alopecurus myosuroides (ALOMY); assay: Example A pre-emergence herbicidal activity; conditions: rate 250 g/ha, evaluated 19 or 20 days later
# Method: (§1) Seeds of a variety of test species were sown in standard soil in pots. After cultivation for one day (pre-emergence) or after 10 days cultivation (post-emergence) under controlled conditions in a glasshouse, the plants were sprayed with an aqueous spray solution derived from the formulation of the technical active ingredient in 0.6 ml acetone and 45 ml formulation solution containing 10.6% Emulsogen EL (Registry number 61791-12-6), 42.2% N-methylpyrrolidone, 42.2% dipropylene glycol monomethyl ether (Registry number 34590-94-8) and 0.2% X-77 (Registry number 11097-66-8). The test plants were then grown in a greenhouse under optimum conditions until, 14 or 15 days later for post-emergence and 19 or 20 days for pre-emergence, the test was evaluated (100=total damage to plant; 0=no damage to plant). Alopecurus myosuroides (ALOMY), Avena fatua (AVEFA), Lolium perenne (LOLPE), Setaria faberi (SETFA), Digitaria sanguinalis (DIGSA), Echinochloa crus-galli (ECHCG)
# Avena fatua (AVEFA) [2] = assay: Example A pre-emergence herbicidal activity; conditions: rate 250 g/ha, evaluated 19 or 20 days later
# Method: as §1
# [3] = system: Digitaria sanguinalis (DIGSA); assay: Example A pre-emergence herbicidal activity; conditions: rate 250 g/ha, evaluated 19 or 20 days later
# Method: as §1
# [4] = system: Echinochloa crus-galli (ECHCG); assay: Example A pre-emergence herbicidal activity; conditions: rate 250 g/ha, evaluated 19 or 20 days later
# Method: as §1
# Lolium perenne (LOLPE) [5] = assay: Example A pre-emergence herbicidal activity; conditions: rate 250 g/ha, evaluated 19 or 20 days later
# Method: as §1
# Setaria faberi (SETFA) [6] = assay: Example A pre-emergence herbicidal activity; conditions: rate 250 g/ha, evaluated 19 or 20 days later
# Method: as §1
# [7] = system: Alopecurus myosuroides (ALOMY); assay: Example A post-emergence herbicidal activity; conditions: rate 125 g/ha, evaluated 14 or 15 days later
# Method: as §1
# Avena fatua (AVEFA) [8] = assay: Example A post-emergence herbicidal activity; conditions: rate 125 g/ha, evaluated 14 or 15 days later
# Method: as §1
# [9] = system: Digitaria sanguinalis (DIGSA); assay: Example A post-emergence herbicidal activity; conditions: rate 125 g/ha, evaluated 14 or 15 days later
# Method: as §1
# [10] = system: Echinochloa crus-galli (ECHCG); assay: Example A post-emergence herbicidal activity; conditions: rate 125 g/ha, evaluated 14 or 15 days later
# Method: as §1
# Lolium perenne (LOLPE) [11] = assay: Example A post-emergence herbicidal activity; conditions: rate 125 g/ha, evaluated 14 or 15 days later
# Method: as §1
# Setaria faberi (SETFA) [12] = assay: Example A post-emergence herbicidal activity; conditions: rate 125 g/ha, evaluated 14 or 15 days later
# Method: as §1
# [13] = system: Alopecurus myosuroides (ALOMY); assay: Example B pre-emergence herbicidal activity; conditions: 312 h, rate 250 g/ha, evaluated after 13 days, read-out: Pre-Emergence Activity ALOMY (100=total damage to plant; 0=no damage to plant)
# Procedure, shortened: (§2)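 Pre-emergence spraying at one day, post-emergence at eight days after sowing. Spray solution in acetone/water (50:50) plus 0.5% Tween 20; plants held at 24/16 °C day/night, 14 h light, 65% humidity. Evaluation at 13 days on a 0–100 damage scale.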
# [14] = system: Amaranthus retoflexus (AMARE); assay: Example B pre-emergence herbicidal activity; conditions: Amaranthus retroflexus, 312 h, rate 250 g/ha, evaluated after 13 days, read-out: Pre-Emergence Activity AMARE (100=total damage to plant; 0=no damage to plant)
# Procedure, shortened: as §2
# Avena fatua (AVEFA) [15] = assay: Example B pre-emergence herbicidal activity; conditions: 312 h, rate 250 g/ha, evaluated after 13 days, read-out: Pre-Emergence Activity AVEFA (100=total damage to plant; 0=no damage to plant)
# Procedure, shortened: as §2
# [16] = system: Echinochloa crus-galli (ECHCG); assay: Example B pre-emergence herbicidal activity; conditions: 312 h, rate 250 g/ha, evaluated after 13 days, read-out: Pre-Emergence Activity ECHCG (100=total damage to plant; 0=no damage to plant)
# Procedure, shortened: as §2
# Setaria faberi (SETFA) [17] = assay: Example B pre-emergence herbicidal activity; conditions: 312 h, rate 250 g/ha, evaluated after 13 days, read-out: Pre-Emergence Activity SETFA (100=total damage to plant; 0=no damage to plant)
# Procedure, shortened: as §2
# [18] = system: Alopecurus myosuroides (ALOMY); assay: Example B post-emergence herbicidal activity; conditions: 312 h, rate 250 g/ha, evaluated after 13 days, read-out: Post-emergence activity ALOMY (100=total damage to plant; 0=no damage to plant)
# Procedure, shortened: as §2
# [19] = system: Amaranthus retoflexus (AMARE); assay: Example B post-emergence herbicidal activity; conditions: Amaranthus retroflexus, 312 h, rate 250 g/ha, evaluated after 13 days, read-out: Post-emergence activity AMARE (100=total damage to plant; 0=no damage to plant)
# Procedure, shortened: as §2
# Avena fatua (AVEFA) [20] = assay: Example B post-emergence herbicidal activity; conditions: 312 h, rate 250 g/ha, evaluated after 13 days, read-out: Post-emergence activity AVEFA (100=total damage to plant; 0=no damage to plant)
# Procedure, shortened: as §2
# [21] = system: Echinochloa crus-galli (ECHCG); assay: Example B post-emergence herbicidal activity; conditions: 312 h, rate 250 g/ha, evaluated after 13 days, read-out: Post-emergence activity ECHCG (100=total damage to plant; 0=no damage to plant)
# Procedure, shortened: as §2
# Setaria faberi (SETFA) [22] = assay: Example B post-emergence herbicidal activity; conditions: 312 h, rate 250 g/ha, evaluated after 13 days, read-out: Post-emergence activity SETFA (100=total damage to plant; 0=no damage to plant)
# Procedure, shortened: as §2
SMILES,pest or weed control at 250 g/ha [13],pest or weed control at 250 g/ha [14],pest or weed control at 250 g/ha (Avena fatua (AVEFA) [15]),pest or weed control at 250 g/ha [16],pest or weed control at 250 g/ha (Setaria faberi (SETFA) [17]),pest or weed control at 250 g/ha [18],pest or weed control at 250 g/ha [19],pest or weed control at 250 g/ha (Avena fatua (AVEFA) [20]),pest or weed control at 250 g/ha [21],pest or weed control at 250 g/ha (Setaria faberi (SETFA) [22]),further results
Cc1sc(-c2ccc(Cl)cc2)nc1C1C(=O)[C@@H]2CC[C@@H](C2)C1=O (stereo partly drawn) [Compound T17],,,,,,,,,,,Pre-Emergence Activity ALOMY (100=total damage to plant; 0=no damage to plant) [1]: 100; Pre-Emergence Activity AVEFA (100=total damage to plant; 0=no damage to plant) (Avena fatua (AVEFA) [2]): 100; Pre-Emergence Activity DIGSA (100=total damage to plant; 0=no damage to plant) [3]: 100; Pre-Emergence Activity ECHCG (100=total damage to plant; 0=no damage to plant) [4]: 100; Pre-Emergence Activity LOLPE (100=total damage to plant; 0=no damage to plant) (Lolium perenne (LOLPE) [5]): 100; Pre-Emergence Activity SETFA (100=total damage to plant; 0=no damage to plant) (Setaria faberi (SETFA) [6]): 100; Post-Emergence Activity ALOMY (100=total damage to plant; 0=no damage to plant) [7]: 70; Post-Emergence Activity AVEFA (100=total damage to plant; 0=no damage to plant) (Avena fatua (AVEFA) [8]): 50; Post-Emergence Activity DIGSA (100=total damage to plant; 0=no damage to plant) [9]: 80; Post-Emergence Activity ECHCG (100=total damage to plant; 0=no damage to plant) [10]: 90; Post-Emergence Activity LOLPE (100=total damage to plant; 0=no damage to plant) (Lolium perenne (LOLPE) [11]): 40; Post-Emergence Activity SETFA (100=total damage to plant; 0=no damage to plant) (Setaria faberi (SETFA) [12]): 80
Cc1sc(-c2ccc(Br)cc2)nc1C1C(=O)[C@@H]2CC[C@@H](C2)C1=O (stereo partly drawn) [Compound T15],,,,,,,,,,,Pre-Emergence Activity ALOMY (100=total damage to plant; 0=no damage to plant) [1]: 90; Pre-Emergence Activity DIGSA (100=total damage to plant; 0=no damage to plant) [3]: 100; Pre-Emergence Activity ECHCG (100=total damage to plant; 0=no damage to plant) [4]: 100; Pre-Emergence Activity LOLPE (100=total damage to plant; 0=no damage to plant) (Lolium perenne (LOLPE) [5]): 100; Pre-Emergence Activity SETFA (100=total damage to plant; 0=no damage to plant) (Setaria faberi (SETFA) [6]): 100; Post-Emergence Activity ALOMY (100=total damage to plant; 0=no damage to plant) [7]: 90; Post-Emergence Activity AVEFA (100=total damage to plant; 0=no damage to plant) (Avena fatua (AVEFA) [8]): 90; Post-Emergence Activity DIGSA (100=total damage to plant; 0=no damage to plant) [9]: 100; Post-Emergence Activity ECHCG (100=total damage to plant; 0=no damage to plant) [10]: 70; Post-Emergence Activity LOLPE (100=total damage to plant; 0=no damage to plant) (Lolium perenne (LOLPE) [11]): 50; Post-Emergence Activity SETFA (100=total damage to plant; 0=no damage to plant) (Setaria faberi (SETFA) [12]): 100
Cc1sc(-c2ccc(OC(F)F)cc2Cl)nc1C1C(=O)[C@@H]2CC[C@@H](C2)C1=O (stereo partly drawn) [Compound T84],70%,0%,40%,100%,100%,90%,40%,70%,100%,100%,
CCc1sc(-c2ccc(Br)cn2)nc1C1C(=O)[C@@H]2CC[C@@H](C2)C1=O (stereo partly drawn) [Compound T39],90%,0%,0%,100%,90%,100%,0%,100%,100%,100%,
CCc1sc(-c2ccc(Br)cc2F)nc1C1C(=O)[C@@H]2CC[C@@H](C2)C1=O (stereo partly drawn) [Compound T33],90%,0%,50%,100%,100%,100%,0%,100%,100%,100%,
Cc1sc(-c2ccc(C(F)(F)F)cc2)nc1C1C(=O)[C@@H]2CC[C@@H](C2)C1=O (stereo partly drawn) [Compound T59],80%,0%,70%,90%,100%,100%,0%,80%,100%,100%,
COc1cc(F)c(-c2nc(C3C(=O)[C@@H]4CC[C@@H](C4)C3=O)c(C)s2)cc1F (stereo partly drawn) [Compound T68],60%,0%,70%,0%,80%,70%,0%,90%,100%,100%,
CCc1sc(-c2cc(F)c(Cl)cc2Cl)nc1C1C(=O)[C@@H]2CC[C@@H](C2)C1=O (stereo partly drawn) [Compound T53],90%,0%,80%,100%,100%,100%,0%,100%,100%,100%,
Cc1sc(-c2ccc(OC(F)F)cc2F)nc1C1C(=O)[C@@H]2CC[C@@H](C2)C1=O (stereo partly drawn) [Compound T92],70%,0%,90%,100%,100%,100%,10%,100%,100%,100%,
